Assay results from PubChem BioAssay (NCI).
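Tested at 5 concentrations; 48 h exposure; 96-well plates; endpoints linearly interpolated, else capped at highest concentration. Here, GI50 denotes the concentration required for 50% inhibition of growth. Definition used: TGI = concentration required for complete inhibition of growth.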

Assays:
Experiment in all cases: NCI tumour cell line growth inhibition, 48 h
786-0 renal = tested on: 786-0 renal
A498 renal = tested on: A498 renal
A549 NSCLC = tested on: A549 NSCLC
ACHN renal = tested on: ACHN renal
BT-549 breast = tested on: BT-549 breast
CAKI-1 renal = tested on: CAKI-1 renal
CCRF-CEM leukemia = tested on: CCRF-CEM leukemia
COLO 205 colon = tested on: COLO 205 colon
DU-145 prostate = tested on: DU-145 prostate
EKVX NSCLC = tested on: EKVX NSCLC
HCC-2998 colon = tested on: HCC-2998 colon
HCT-116 colon = tested on: HCT-116 colon
HCT-15 colon = tested on: HCT-15 colon
HL-60(TB) leukemia = tested on: HL-60(TB) leukemia
HOP-62 NSCLC = tested on: HOP-62 NSCLC
HOP-92 NSCLC = tested on: HOP-92 NSCLC
HS 578T breast = tested on: HS 578T breast
HT29 colon = tested on: HT29 colon
IGROV1 ovarian = tested on: IGROV1 ovarian
K-562 leukemia = tested on: K-562 leukemia
KM12 colon = tested on: KM12 colon
LOX IMVI melanoma = tested on: LOX IMVI melanoma
M14 melanoma = tested on: M14 melanoma
MALME-3M melanoma = tested on: MALME-3M melanoma
MCF7 breast = tested on: MCF7 breast
MDA-MB-231 breast = tested on: MDA-MB-231 breast
MDA-MB-435 = tested on: MDA-MB-435
MDA-MB-468 breast = tested on: MDA-MB-468 breast
MOLT-4 leukemia = tested on: MOLT-4 leukemia
NCI-H226 lung = tested on: NCI-H226 lung
NCI-H23 lung = tested on: NCI-H23 lung
NCI-H460 lung = tested on: NCI-H460 lung
NCI-H522 lung = tested on: NCI-H522 lung
NCI/ADR-RES ovarian = tested on: NCI/ADR-RES ovarian
OVCAR-3 ovarian = tested on: OVCAR-3 ovarian
OVCAR-4 ovarian = tested on: OVCAR-4 ovarian
OVCAR-5 ovarian = tested on: OVCAR-5 ovarian
OVCAR-8 ovarian = tested on: OVCAR-8 ovarian
PC-3 prostate = tested on: PC-3 prostate
RPMI-8226 leukemia = tested on: RPMI-8226 leukemia
RXF 393 renal = tested on: RXF 393 renal
SF-268 CNS = tested on: SF-268 CNS
SF-295 CNS = tested on: SF-295 CNS
SF-539 CNS = tested on: SF-539 CNS
SK-MEL-2 melanoma = tested on: SK-MEL-2 melanoma
SK-MEL-28 melanoma = tested on: SK-MEL-28 melanoma
SK-MEL-5 melanoma = tested on: SK-MEL-5 melanoma
SK-OV-3 ovarian = tested on: SK-OV-3 ovarian
SN12C renal = tested on: SN12C renal
SNB-19 CNS = tested on: SNB-19 CNS
SNB-75 CNS = tested on: SNB-75 CNS
SR leukemia = tested on: SR leukemia
SW-620 colon = tested on: SW-620 colon
T-47D breast = tested on: T-47D breast
TK-10 renal = tested on: TK-10 renal
U251 CNS = tested on: U251 CNS
UACC-257 melanoma = tested on: UACC-257 melanoma
UACC-62 melanoma = tested on: UACC-62 melanoma
UO-31 renal = tested on: UO-31 renal

Work on `COc1cc2c(c(OC)c1OC)C(=O)CC(c1cccc(NC(=O)c3cccc([N+](=O)[O-])c3)c1)O2` (stereo not drawn) yielded a GI50 (786-0 renal) of 47.9 µM, a TGI (786-0 renal) of over 100 µM and a GI50 (A498 renal) of 67.4 µM. It also gave a TGI (A498 renal) of over 100 µM, a GI50 (A549 NSCLC) of 21.7 µM and a TGI (A549 NSCLC) of over 100 µM. For the same compound, the GI50 (ACHN renal) was 21.5 µM, the TGI (ACHN renal) was over 100 µM and the GI50 (BT-549 breast) was 5 µM. The TGI (BT-549 breast) was 57.7 µM, the GI50 (CAKI-1 renal) was 6.66 µM and the TGI (CAKI-1 renal) was over 100 µM. It also gave a GI50 (CCRF-CEM leukemia) of 3.44 µM, a TGI (CCRF-CEM leukemia) of over 100 µM and a GI50 (COLO 205 colon) of 28 µM. For the same compound, the TGI (COLO 205 colon) was over 100 µM, the GI50 (DU-145 prostate) was 21.5 µM and the TGI (DU-145 prostate) was over 100 µM. For the same compound, the GI50 (EKVX NSCLC) was over 100 µM, the TGI (EKVX NSCLC) was over 100 µM and the GI50 (HCC-2998 colon) was 55.1 µM. The TGI (HCC-2998 colon) was over 100 µM, the GI50 (HCT-116 colon) was 9.24 µM and the TGI (HCT-116 colon) was over 100 µM. It also gave a GI50 (HCT-15 colon) of 6.57 µM, a TGI (HCT-15 colon) of over 100 µM and a GI50 (HL-60(TB) leukemia) of 3.84 µM. It also gave a TGI (HL-60(TB) leukemia) of 29.1 µM, a GI50 (HOP-62 NSCLC) of 98.7 µM and a TGI (HOP-62 NSCLC) of over 100 µM. For the same compound, the GI50 (HOP-92 NSCLC) was 4.29 µM, the TGI (HOP-92 NSCLC) was over 100 µM and the GI50 (HS 578T breast) was 7.29 µM. For the same compound, the TGI (HS 578T breast) was over 100 µM, the GI50 (HT29 colon) was 26.8 µM and the TGI (HT29 colon) was over 100 µM. It also gave a GI50 (IGROV1 ovarian) of 18.6 µM, a TGI (IGROV1 ovarian) of over 100 µM and a GI50 (K-562 leukemia) of 6.03 µM. The TGI (K-562 leukemia) was over 100 µM, the GI50 (KM12 colon) was 3.39 µM and the TGI (KM12 colon) was over 100 µM. The GI50 (LOX IMVI melanoma) was 13.9 µM, the TGI (LOX IMVI melanoma) was over 100 µM and the GI50 (M14 melanoma) was 19.2 µM. It also gave a TGI (M14 melanoma) of over 100 µM, a GI50 (MALME-3M melanoma) of 10.1 µM and a TGI (MALME-3M melanoma) of over 100 µM. It also gave a GI50 (MCF7 breast) of 6.99 µM, a TGI (MCF7 breast) of over 100 µM and a GI50 (MDA-MB-231 breast) of 18.8 µM. The TGI (MDA-MB-231 breast) was over 100 µM, the GI50 (MDA-MB-435) was 4.3 µM and the TGI (MDA-MB-435) was 21.5 µM. For the same compound, the GI50 (MDA-MB-468 breast) was 2.07 µM, the TGI (MDA-MB-468 breast) was 8.94 µM and the GI50 (MOLT-4 leukemia) was 3.93 µM. The TGI (MOLT-4 leukemia) was over 100 µM, the GI50 (NCI-H226 lung) was 5.77 µM and the TGI (NCI-H226 lung) was over 100 µM. For the same compound, the GI50 (NCI-H23 lung) was 32.8 µM, the TGI (NCI-H23 lung) was over 100 µM and the GI50 (NCI-H460 lung) was 17.2 µM. It also gave a TGI (NCI-H460 lung) of over 100 µM, a GI50 (NCI-H522 lung) of 4.65 µM and a TGI (NCI-H522 lung) of 49.8 µM. It also gave a GI50 (NCI/ADR-RES ovarian) of 4.88 µM, a TGI (NCI/ADR-RES ovarian) of over 100 µM and a GI50 (OVCAR-3 ovarian) of 9.49 µM. For the same compound, the TGI (OVCAR-3 ovarian) was over 100 µM, the GI50 (OVCAR-4 ovarian) was 7.98 µM and the TGI (OVCAR-4 ovarian) was over 100 µM. For the same compound, the GI50 (OVCAR-5 ovarian) was 74.6 µM, the TGI (OVCAR-5 ovarian) was over 100 µM and the GI50 (OVCAR-8 ovarian) was 4.62 µM. The TGI (OVCAR-8 ovarian) was over 100 µM, the GI50 (PC-3 prostate) was 4.66 µM and the TGI (PC-3 prostate) was over 100 µM. The GI50 (RPMI-8226 leukemia) was 3.24 µM, the TGI (RPMI-8226 leukemia) was 48.6 µM and the GI50 (RXF 393 renal) was 3.62 µM. The TGI (RXF 393 renal) was over 100 µM, the GI50 (SF-268 CNS) was 18.5 µM and the TGI (SF-268 CNS) was over 100 µM. For the same compound, the GI50 (SF-295 CNS) was 18.7 µM, the TGI (SF-295 CNS) was over 100 µM and the GI50 (SF-539 CNS) was 29.3 µM. It also gave a TGI (SF-539 CNS) of over 100 µM, a GI50 (SK-MEL-2 melanoma) of 7.49 µM and a TGI (SK-MEL-2 melanoma) of 48.8 µM. The GI50 (SK-MEL-28 melanoma) was 35.2 µM, the TGI (SK-MEL-28 melanoma) was over 100 µM and the GI50 (SK-MEL-5 melanoma) was 6.3 µM. It also gave a TGI (SK-MEL-5 melanoma) of 46.7 µM, a GI50 (SK-OV-3 ovarian) of over 100 µM and a TGI (SK-OV-3 ovarian) of over 100 µM. It also gave a GI50 (SN12C renal) of 11.2 µM, a TGI (SN12C renal) of over 100 µM and a GI50 (SNB-19 CNS) of 36.9 µM. For the same compound, the TGI (SNB-19 CNS) was over 100 µM, the GI50 (SNB-75 CNS) was 7.73 µM and the TGI (SNB-75 CNS) was over 100 µM. For the same compound, the GI50 (SR leukemia) was 3.15 µM, the TGI (SR leukemia) was over 100 µM and the GI50 (SW-620 colon) was 10.9 µM. It also gave a TGI (SW-620 colon) of over 100 µM, a GI50 (T-47D breast) of 3.74 µM and a TGI (T-47D breast) of over 100 µM. The GI50 (TK-10 renal) was 51.6 µM, the TGI (TK-10 renal) was over 100 µM and the GI50 (U251 CNS) was 20.1 µM. For the same compound, the TGI (U251 CNS) was over 100 µM, the GI50 (UACC-257 melanoma) was 19.5 µM and the TGI (UACC-257 melanoma) was over 100 µM. For the same compound, the GI50 (UACC-62 melanoma) was 4.07 µM, the TGI (UACC-62 melanoma) was 65.4 µM and the GI50 (UO-31 renal) was 4.79 µM. For the same compound, the TGI (UO-31 renal) was over 100 µM.
